# According to patent publication US20210379062A1, “The use of a H3R inverse agonist for the treatment of excessive daytime sleepiness associated with parkinson's disease (PD)” (Novartis AG, priority 2018, published 2021):
# Columns and labels:
# Rat brain and plasma PK = type: in vivo; settings: 10 mg/kg oral, rats
# [1] = First-in-human SAD/MAD study: safety, tolerability, night sleep duration, formulation effect; type: in vivo
# Experimental: An open-label, adaptive design study was performed in healthy volunteers to characterize regional brain H3 receptor occupancy following single dose of Compound (I) by using positron emission tomography (PET) with the radioligand [^11C]MK-8278 (Van Laere, K. J. et al, Journal of Nuclear Medicine, 2014, 55: 65-72). The primary objective of this study was to evaluate the plasma concentration of Compound (I) leading to 50% occupancy of H3 receptors in the brain (EC50). A total of 6 subjects were enrolled into the study and were scanned in three cohorts of two subjects each. Prior to dosing with Compound (I), each subject underwent a baseline PET scan to assess binding of [^11C]MK-8278 to H3R in the absence of Compound (I). Subjects subsequently received single oral doses of Compound (I) and then underwent two post-dose PET scans. Subjects of cohort 1 received a single oral dose of 300 mg of Compound (I), corresponding to the single dose maximum tolerated dose (MTD) determined from the Phase I study after single oral dose of Compound (I). These subjects underwent two post-dose PET scans, at 3 hours and 27 hours after dosing. The doses and scan timings for the subsequent cohorts were selected based on interim data analyses following the completion of the preceding cohort(s). Subjects of cohorts 2 and 3 received a single oral dose of 10 mg and 0.3 mg, respectively. Compound (I) was administered as capsules in cohorts 1 and 2, whereas cohort 3 received Compound (I) as an oral solution. […] The first post-dose PET scan for cohorts 2 and 3 was acquired at 3 hours and the second one at 27 hours and 8 hours after dosing, respectively.
# PK data (drug concentration over time) from Part 1 and Part 2 of the Phase I study were used in the development of the model: • 1) Part 1 is the Single Ascending Dose part; 8 different cohorts were used, with each cohort composed of 6 active subjects and 2 placebo subjects. The dose amounts used in the 8 cohorts were 0.3, 1, 3, 10, 30, 100, 300 and 800 mg. Dosing was performed at time equal to 0 hours. […]
# [2] = system: tele-methylhistamine (tMeHA); assay: Ex vivo PD determination: brain tele-methylhistamine time course in rats; set-up: species or system rat; settings: 10 mg/kg oral
# Experimental: Male Sprague-Dawley rats (Shanghai SLAC Laboratory Animal Co. LTD) of 6-7 weeks age were used. Animals were housed in a temperature and humidity-controlled environment on a 12 h light/dark. All animals had free access to food and water. All procedures were approved by Institutional Animal Care and Use Committee of ChemPartner Co., LTD (IACUC Protocol NO: A998HL0002).
# For bioanalysis of brain tissue tele-methylhistamine samples were further processed.
# One aliquot of the stock solution was diluted using ethanol/phosphate buffer pH 7.4 (85:15, v/v) to achieve a series working solutions. The brain homogenate was centrifuged at 12000 rpm for 5 min at 4° C. Then 10 μL supernatant of the brain homogenate sample was added to 60 μL internal standard (d3-1-methyl-histamine, 20 ng/mL). The mixture was vortexed for 2 min and centrifuged at 12000 rpm for 5 min at 4° C. Finally, 60 μL supernatant was added and 3 μL supernatant was injected into LC-MS/MS for analysis (Agilent 6410, triple quadrupole mass spectrometer, Mobile phase A: H2O— 0.1% NH3, Mobile phase B: methanol— 0.1% NH3, Column: Ultimate XB-C18 (2.1×50 mm, 5 μm, Flow rate: 0.45 mL/min, temperature: 40° C.).
# [3] = PK model (two-compartment, NONMEM) fitted to Phase I SAD/MAD concentrations; type: in vivo, human
# Experimental: PK data (drug concentration over time) from Part 1 and Part 2 of the Phase I study were used in the development of the model: • 1) Part 1 is the Single Ascending Dose part; 8 different cohorts were used, with each cohort composed of 6 active subjects and 2 placebo subjects. The dose amounts used in the 8 cohorts were 0.3, 1, 3, 10, 30, 100, 300 and 800 mg. Dosing was performed at time equal to 0 hours. Additional data from the Part 3 of the Phase I study (Mechanistic biomarker study, 100 mg single dose) were lumped with this group. • 2) Part 2 is the Multiple Ascending Dose part; 4 different cohorts were used, with each cohort composed of 9 active subjects and 3 placebo subjects. The dose amounts used in the 4 cohorts were 10, 30, 50 and 100 mg. Dosing was performed once a day (in the morning) at times equal to 0, 2, 3, 4, 5, 6, 7, 8, 9, 10, 11, 12, 13, 14, 15 days.
# The analysis was performed using NONMEM VII version 3 (Icon Development Solutions, Ellicott City, Md., USA), utilizing the MODESIM high performance computing environment. Pirana software was used for model editing and model submission to the cluster for running. All model building was performed using the first order conditional estimation with interaction (FOCEi) method.
# A two-compartment model with combined zeroth-order and first-order absorption was used to fit the Compound (I) concentrations. The disposition kinetics were modeled using a parameterization involving apparent oral clearance (CL/F), apparent central volume (Vc/F), apparent inter-compartment clearance (Q/F), and apparent peripheral volume (Vp/F). The duration of zero-order absorption (D), a first order absorption rate constant (Ka) and an absorption delay parameter (Lag) were used to characterize the absorption process.
# Between-subject variability in pharmacokinetic parameters Vc/F, CL/F, Vp/F and Ka was modeled using multiplicative exponential random effects of the form:
# Residual variability was modeled using a proportional error model: […]
smiles,measurement,setting,value
"Cn1nc(N2CCC(OC(=O)N3CCN(C4CCC4)CC3)CC2)ccc1=O [Compound (I), 1-(1-methyl-6-oxo-1,6-dihydropyridazin-3-yl)piperidin-4-yl 4-cyclobutylpiperazine-1-carboxylate]",total brain exposure,Rat brain and plasma PK,intermediate
same,brain exposure,Rat brain and plasma PK; 8 h time point,close to detection limit
same,concentration at 4 h,"Rat brain and plasma PK; male, Sprague-Dawley, rat, brain, 4 h time point, read-out: brain exposure",21 ng/g
same,highest tolerated repeated dose,"[1]; healthy volunteer study, repeated dose",50 mg
same,"difference in PK, capsule vs oral solution","[1]; in vivo, po",no clinically relevant difference
same,single dose maximum tolerated dose (MTD),"[1]; single oral dose, Phase I study",300 mg
same,time at which tMeHA increase starts,[2],30 min
same,time of tMeHA peak,[2],2 h
same,tMeHA level at 8 h,[2]; 8 h,stayed slightly elevated
same,effect on tMeHA levels,[2]; brain,increased
same,duration of histamine release after compound administration,[2]; deconvolution of the PD data,about 2 h
same,CL/F (apparent oral clearance),[3]; PK model estimate,22.8 L/h
same,D (duration of zero-order absorption),[3]; PK model estimate,0.108 h
same,Ka (first-order absorption rate constant),[3]; PK model estimate,2.44 h⁻¹
same,Lag (absorption delay),[3]; PK model estimate,0.214 h
same,Q/F (apparent inter-compartment clearance),[3]; PK model estimate,1.26 L/h
same,Residual Unexplained Variability,[3]; PK model estimate,34.8%
same,VC/F (apparent central volume),[3]; PK model estimate,121 L
same,VP/F (apparent peripheral volume),[3]; PK model estimate,18.4 L
same,Omega CL/F,[3]; between-subject variability,40.37 % CV
same,Omega Ka,[3]; between-subject variability,145 % CV
same,Omega Vc/F,[3]; between-subject variability,23.71 % CV
same,Omega Vp/F,[3]; between-subject variability,46.48 % CV
